In PubChem BioAssay (NCI) one finds GI50 and TGI data, which are given here for seven molecules.

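Each compound was tested at five concentrations against cells in 96-well plates for 48 hours. GI50: concentration for 50% inhibition of growth. TGI: concentration producing complete growth inhibition.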 Where only a bound is given, the exact number is not on record here.

Some test systems named below: SNB-75 CNS; IGROV1 ovarian; T-47D breast; HCC-2998 colon; CAKI-1 renal; UACC-62 melanoma; HOP-62 NSCLC; MOLT-4 leukemia; A498 renal; BT-549 breast.
What all share (experiment): NCI anticancer screen, dose series, 48 h

For the molecule `O=[N+]([O-])c1ccc(Sc2ccncn2)c([N+](=O)[O-])c1`, the GI50 in the test with SNB-75 CNS is 2.82 µM; with IGROV1 ovarian it was 2.23 µM; with T-47D breast, 1.94 µM; with HCC-2998 colon, 5.17 µM; with CAKI-1 renal, 0.602 µM; in the test with UACC-62 melanoma, 6.32 µM. In addition, the GI50 is 4.47 µM with HOP-62 NSCLC, 0.939 µM with MOLT-4 leukemia, 8.71 µM with A498 renal and 2.7 µM in the test with BT-549 breast. In addition, the TGI in the test on SNB-75 CNS was found to be 13.1 µM; in the test with IGROV1 ovarian, 5.3 µM; in the test with T-47D breast, 4.41 µM; in the test with HCC-2998 colon, 16.3 µM; with CAKI-1 renal, 1.93 µM; in the test on UACC-62 melanoma it was 19.3 µM. The TGI turned out to be 15.8 µM with HOP-62 NSCLC, 4.24 µM in the test with MOLT-4 leukemia, 22.7 µM in the test on A498 renal and 7.55 µM with BT-549 breast.
`O=C(/C=C/OC(=O)c1cccc(Cl)c1)c1ccc(Cl)cc1`: the GI50 was 17.3 µM in the test on SNB-75 CNS; above 46.8 µM in the test on IGROV1 ovarian; above 48.8 µM in the test with T-47D breast; 29.3 µM in the test with HCC-2998 colon; above 51.5 µM with CAKI-1 renal; above 80.8 µM with UACC-62 melanoma. In addition, the GI50 is above 100 µM in the test with HOP-62 NSCLC, 31.8 µM in the test with MOLT-4 leukemia, above 40.3 µM in the test on A498 renal and 30.3 µM in the test on BT-549 breast. Further, the TGI in the test on SNB-75 CNS is 73.5 µM; in the test with IGROV1 ovarian, above 100 µM; with T-47D breast, above 100 µM; with HCC-2998 colon it was above 100 µM; in the test on CAKI-1 renal, above 100 µM; in the test on UACC-62 melanoma, above 100 µM. For the same molecule, the TGI in the test on HOP-62 NSCLC is above 100 µM; with MOLT-4 leukemia, above 78.6 µM; in the test on A498 renal, 96.9 µM; in the test with BT-549 breast it was above 77 µM.
As to `Cn1c2ccccc2c2c(=O)n(CCCC(=O)OC(=NC3CCCCC3)NC3CCCCC3)c3c(-c4ccccc4)nnn3c21`, the GI50 was 44.6 µM with SNB-75 CNS; 15.4 µM in the test on IGROV1 ovarian; 55.8 µM in the test with T-47D breast; above 100 µM in the test with HCC-2998 colon; above 100 µM with CAKI-1 renal; above 100 µM in the test on UACC-62 melanoma. The GI50 was above 100 µM with HOP-62 NSCLC, above 100 µM in the test on MOLT-4 leukemia, 65.8 µM with A498 renal and 72 µM in the test with BT-549 breast. In addition, the TGI in the test with SNB-75 CNS was above 100 µM; with IGROV1 ovarian, 94.4 µM; in the test on T-47D breast, above 100 µM; with HCC-2998 colon it was above 100 µM; in the test on CAKI-1 renal, above 100 µM; with UACC-62 melanoma, above 100 µM. Moreover, the TGI in the test on HOP-62 NSCLC, in the test with MOLT-4 leukemia, with A498 renal and with BT-549 breast was above 100 µM in each case.
Take `COc1ccc(N(C)c2nc(Cl)nc3cnn(C)c23)cc1`: the GI50 in the test on SNB-75 CNS is below 0.01 µM; in the test with IGROV1 ovarian it was below 0.0189 µM; in the test with T-47D breast it was below 0.01 µM; with HCC-2998 colon, 0.0285 µM; in the test with CAKI-1 renal it was below 0.01 µM; in the test with UACC-62 melanoma, below 0.01 µM. For the same molecule, the GI50 is below 0.0118 µM in the test on HOP-62 NSCLC, 0.0193 µM with MOLT-4 leukemia, below 0.01 µM in the test on A498 renal and 0.0207 µM in the test with BT-549 breast. The TGI in the test on SNB-75 CNS is above 100 µM; with IGROV1 ovarian, above 100 µM; with T-47D breast it was above 100 µM; in the test on HCC-2998 colon it was above 59.7 µM; in the test with CAKI-1 renal, above 100 µM; in the test on UACC-62 melanoma, above 100 µM. The TGI was above 100 µM with HOP-62 NSCLC, above 100 µM with MOLT-4 leukemia, 0.178 µM in the test with A498 renal and above 71.6 µM in the test on BT-549 breast.
For the molecule `CCCN1CCC(c2ccc(Nc3nc(Nc4cc(F)ccc4C(N)=O)c4cc[nH]c4n3)c(OC)c2)CC1`, the GI50 in the test with SNB-75 CNS is 4 µM; in the test with IGROV1 ovarian, 1.87 µM; in the test with T-47D breast, 4.14 µM; in the test with HCC-2998 colon, 2.53 µM; in the test on CAKI-1 renal, 3.16 µM; in the test with UACC-62 melanoma, 3.58 µM. For the same molecule, the GI50 is 2.71 µM with HOP-62 NSCLC, 4.4 µM with MOLT-4 leukemia, 1.17 µM in the test with A498 renal and 4.16 µM with BT-549 breast. Also, the TGI in the test on SNB-75 CNS came out at 7.55 µM; with IGROV1 ovarian, 7.44 µM; with T-47D breast, 9.17 µM; with HCC-2998 colon, 5.5 µM; with CAKI-1 renal, 9.56 µM; in the test with UACC-62 melanoma it was 7.44 µM. Besides, the TGI was 5.84 µM with HOP-62 NSCLC, 12.3 µM in the test with MOLT-4 leukemia, 5.07 µM in the test on A498 renal and 8.19 µM with BT-549 breast.
On to `CC1=C([Se]CC(OC(=O)[C@@H](CO)NC(=O)OC(C)(C)C)C(=O)NCCCCCC(=O)OCc2ccccc2)C(=O)c2ccccc2C1=O` (stereo not given in full), for which the GI50 in the test on SNB-75 CNS was 1.29 µM; in the test on IGROV1 ovarian, 1.79 µM; with T-47D breast, 1.62 µM; in the test with HCC-2998 colon, 1.98 µM; with CAKI-1 renal it was 1.8 µM; in the test with UACC-62 melanoma, 1.68 µM. Also, the GI50 in the test with HOP-62 NSCLC was 0.414 µM; in the test on MOLT-4 leukemia it was 1.39 µM; with A498 renal, 2.02 µM; with BT-549 breast it was 1.73 µM. The TGI came to 2.55 µM in the test with SNB-75 CNS; 3.37 µM in the test with IGROV1 ovarian; 3.95 µM with T-47D breast; 3.48 µM with HCC-2998 colon; 3.32 µM with CAKI-1 renal; 3.07 µM with UACC-62 melanoma. Also, the TGI in the test with HOP-62 NSCLC was 1.75 µM; with MOLT-4 leukemia, 4.93 µM; in the test on A498 renal, 5.93 µM; in the test on BT-549 breast, 3.11 µM.
In the case of `COc1cc2c(cc1C)NC(=O)/C2=C\c1c[nH]c2ccccc12`, the GI50 with SNB-75 CNS is 4.12 µM; in the test on IGROV1 ovarian, 4.44 µM; in the test with T-47D breast, 13.2 µM; with HCC-2998 colon it was 21.7 µM; in the test on CAKI-1 renal, 10.6 µM; with UACC-62 melanoma it was 13.3 µM. The GI50 with HOP-62 NSCLC was 17.9 µM; with MOLT-4 leukemia, 5.87 µM; in the test with A498 renal, 11.2 µM; in the test on BT-549 breast, 17.4 µM. In addition, the TGI with SNB-75 CNS was found to be 22.9 µM; in the test with IGROV1 ovarian, 33.6 µM; with T-47D breast it was 45.8 µM; in the test on HCC-2998 colon, 71.1 µM; in the test on CAKI-1 renal, 32.3 µM; with UACC-62 melanoma, 28.4 µM. Also, the TGI in the test on HOP-62 NSCLC is 56.8 µM; with MOLT-4 leukemia it was 43.5 µM; in the test on A498 renal, 26.9 µM; in the test with BT-549 breast it was 36.3 µM.
